Key:
[1] = Dynamic light scattering, free peptides and free BTCI; format: physicochemical; conditions: 25 µM, 2 mM Tris-HCl pH 7.4, 37 °C
Description: (§1) The hydrodynamic properties of the BTCI through the complex formation with Bk and analogues were monitored using DLS technique with laser source operated at 800 nm on the DynaPro LSR model (Wyatt Technology Corporation, Santa Barbara, CA, USA). The internal temperature was controlled by a Peltier system coupled to the detector. The Bk, Bk-related peptides, BTCI and BTCI-Bk, BTCI-Bk-related peptides complexes, were incubated for 30 minutes in 2 mM Tris-HCl pH 7.4 and then centrifuged at 5000 g and filtered ([…]) before the DLS experiments. The average of 100 acquisitions for each measure was considered for BTCI (25 µM) and synthetic Bk-related peptides (25 µM) separately and subsequently for the BTCI-Bk complexes (1:1). The formation of complexes was analyzed at 37 °C, considering the relationship of the scattered light intensity signal and the hydrodynamic diameter of the samples, using the Dynamics V6 program (Wyatt Technology Corporation).

[2] = system: guinea pig (Cavia porcellus) ileum; assay: Smooth muscle constriction force assay, guinea pig ileum
Description: Male guinea pigs (Cavia porcellus) weighing between 200 and 300 g and fasted for 24 h were euthanized using an overdose of anesthetic at 120 mg/kg (ketamine and xylazine). The protocol was approved by the Committee on the Ethics of Animal Experiments of the Institute of Biology, University of Brasilia (Proc. Number 737402/2008). Segments of 2 cm from the terminal portion of the ileum were removed and washed in Tyrode’s solution (g/L: 8.00 NaCl,0.20 KCl, 0.20 CaCl2, 0.21 MgCl2), and attached to a glass rod that was immersed in a physiological bath chamber with a capacity of 10 mL containing Tyrode solution at 37 °C. In the opposite region, a thread of silk was attached to the F-60 isometric transducer connected to a polygraph (NARCO Bio-Systems, Houston, TX, USA). The bath was kept aerated constantly with carbogen (95% O2 + 5% CO2). Previously, as a control, smooth muscle response was analyzed using Bk from Sigma Aldrich. Experiments were done in triplicate, and constriction force was analyzed by addition of Bk and analogues in the absence or presence of BTCI, in three concentrations: 1, 5 or 10 µM. The hypotensive effects of the complexes were also evaluated in the presence of trypsin or chymotrypsin. After each experiment, the bath solution was exchanged three times in order to remove the drug used. Statistical analysis was carried out using the Paleontological Statistics (PAST) Software Package for Education and Data Analysis. A value of Student’s t-test p < 0.05 was considered to denote a significant difference.

[3] = Cardiovascular effects of infusion of Bk and Bk-related peptides with BTCI or vehicle in anesthetized rats; format: in vivo, male Wistar rats; conditions: for aortic vasodilation (change in AVC) / change in mean arterial pressure (MAP) / renal vasodilation (change in RVC): from the baseline value, mean ± SEM, 6 experiments
Description: All experiments were conducted on adult male Wistar rats (280–350 g). They were obtained from the central animal house of the Federal University of Goiás. Experimental procedures were designed with strict adherence to the National Health Institute Guidelines for Care and Use of Laboratory Animals as approved by the Ethics Committee, Federal University of Goiás (034/12).
On the day of experiments, the rats were anesthetized with halothane (2%–3% in 100% O2; Cristália Ltda, Itapira, SP, Brazil) prior to the catheterization of the right femoral vein and artery. After the catheter placement, the rats were removed from the halothane and the anesthesia was maintained with urethane (1.2 g·kg^−1 b.wt., i.v.; Sigma-Aldrich Co.). The trachea was cannulated to reduce airway resistance. The body temperature was kept at 37 ± 0.5 °C with a thermostatically controlled heated table.
Renal blood flow (RBF) and aortic blood flow (ABF) were measured with an ultrasonic transit-time flowmeter (Transonic Systems, Inc., Ithaca, NY, USA). Data were recorded continuously with an analog-to-digital converter (PowerLab 4/25, ML845, AD Instruments, Bella Vista, Australia). Mean arterial pressure (MAP) was determined from the pulsatile signal. Aortic vascular conductance (AVC) and renal vascular conductance (RVC) were calculated by a ratio of ABF and RBF divided by MAP, and were expressed as percentage of baseline. Increasing doses of BTCI (0.3, 3, 30 and 300 µg·kg^−1, i.v.) were infused.
Results are presented as means ± S.E.M. The effects of infusion of Bk, Bk-related peptides and BTCI on cardiovascular parameters were analyzed by one-way ANOVA. […] A value of Student’s t-test p < 0.05 was considered to denote a significant difference.

[4] = system: BTCI; assay: Dynamic light scattering, BTCI-Bk complex formation; format: binding, Vigna unguiculata
Description: as §1

[5] = system: bovine pancreatic trypsin; assay: Trypsin inhibition by BTCI (BAPNA substrate); format: biochemical; conditions: BTCI 10 µM, peptide 0–10 µM
Description: The inhibitory activities of BTCI against bovine pancreatic trypsin (25 kDa; A280^1% = 15.90) and chymotrypsin (24 kDa; A280^1% = 20.40) (Sigma Co.) were first determined in the absence of Bk and Bk-related peptides. Briefly, the residual enzymatic activities were assayed by mixing 40 µL of chymotrypsin (28.60 µM) or trypsin (2.57 µM) with BTCI at concentration range of 0–10 µM for trypsin and 0–40 µM for chymotrypsin at 25 °C for 15 minutes. After that, 200 µL of 0.40·mg·mL^−1 N-glutaryl-L-phenylalanine-p-nitroanilide (GPNA) in 50 mM Tris-HCl, 20 mM CaCl2, pH 7.6 for chymotrypsin assay or 0.43 mg·mL^−1 Nα-benzoyl-DL-arginine 4-nitroanilide hydrochloride (BAPNA) in 50 mM Tris-HCl, 20 mM CaCl2, pH 8.2 for trypsin assay were added. Substrate hydrolysis was done for 15 minutes and stopped by adding 30% (v/v) acetic acid. The enzymatic assays were also carried out in the presence of Bk at similar concentration of BTCI. The relative enzymatic activities were evaluated by the liberation of p-nitroanilide, which was monitored at 410 nm using a SpectraMax Plus 384 Microplate Reader spectrophotometer (Molecular Devices, Sunnyvale, CA, USA). The obtained values are an average of three independent measurements. Inhibition curves were obtained by plotting relative activities of the proteases vs. BTCI concentration in the absence or presence of Bk and Bk-related peptides. […]

[6] = peptide 120 µg·kg^−1 + BTCI 3 µg·kg^−1, i.v.
[7] = peptide 120 µg·kg^−1 i.v. + BTCI 3 µg·kg^−1 i.v.
[8] = peptide 120 µg·kg^−1 i.v., without BTCI

Substance: [Val]^1[Thr]^6-bradykinyl-Gln-Ser [Bk2]
- polydispersity, peptide [1]: lower than 0.15
- contraction force relative to Bk ([2]; 10 µM, after activation by trypsin treatment): approximately 1.3 fold
- smooth muscle contraction when pretreated with BTCI and serine proteases ([2]; data not shown): did not induce muscle contraction
- smooth muscle contraction ([2]; free peptide, 1, 5, 10 µM, 37 °C, triplicate): unable to exert their contractive effects
- smooth muscle contraction after trypsin pretreatment ([2]; peptide pretreated with trypsin, 1.0, 5.0, 10.0 µM): induced smooth muscle contraction, in a concentration-responsive manner (Figure 7), and at higher levels than Bk in free state
- effect of association with BTCI on aortic vasodilation [3, 6]: potentiated
- effect of association with BTCI on renal vasodilation [3, 6]: potentiated renal
- aortic vasodilation (change in AVC) [3, 7]: 28% ± 2.6%
- change in mean arterial pressure (MAP) [3, 7]: −12 ± 2.7 mmHg
- renal vasodilation (change in RVC) [3, 7]: 29% ± 4.9%
- aortic vasodilation (change in AVC) [3, 8]: 19% ± 2.7%
- change in mean arterial pressure (MAP) [3, 8]: −12 ± 1.2 mmHg
- renal vasodilation (change in RVC) [3, 8]: 19% ± 3.0%
- polydispersity of peptide complexed with BTCI (in words) ([4]; 1:1 complex, pH 7.4, 37 °C): moderate polidispersity
- hydrodynamic diameter of BTCI in the presence of peptide ([4]; BTCI 25 µM : peptide 25 µM (1:1), 30 min, 2 mM Tris-HCl pH 7.4, 37 °C): increased from 1.7 nm to 3.3 nm
- effect of peptide on BTCI inhibition of trypsin [5]: did not interfer in their activities

Reference: PMC6271500, “Bowman-Birk Protease Inhibitor from Vigna unguiculata Seeds Enhances the Action of Bradykinin-Related Peptides” (Molecules, 2014)
